Test results reported in patent US7601501B2, “Controlling osteogenesis by inhibition of osteogenic suppressors” (The Scripps Research Institute, priority 2006, dated 2009).
“Also recorded” adds a separate entry of the source. Strand notation (5' to 3'): a small letter for the sugar, then the base; units joined by * are phosphorothioate-linked, units joined directly phosphodiester-linked; [ ] holds rarer units or linkages, { } end groups; capitals alone tell only the bases. d = 2'-deoxy (DNA)

Key:
CREB = assay: CRE decoy transfection followed by osteogenic or adipogenic induction media; type: cell-based, human; details: 90 nM oligonucleotide, vs CRE mismatch control; for adipogenic differentiation after decoy transfection: adipogenic induction media
Description: (§1) The human mesenchymal stem cells (hMSCs, PT-2501) were purchased from Cambrex Inc. and cultured as instructed by the supplier. Cells were expanded to passage 5 before being used for siRNA library screen. Briefly, diluted Xtreme-siRNA transfection reagent (cat# 4 476 115 00, Roche) (0.12 μl Xtreme in 14 μl DMEM) was mixed with pre-spotted siRNA (14 ng/well) in each well of 384-well plates for one hour. Cells (4000/well) in 60 μl media (no antibiotics) were then added using automated dispenser (Multidrop 384, Thermo LabSystems) (siRNA final concentration at around 15 nM). Transfection was allowed to continue for 8 hours before first media renewal. After 7 days of culture, cells were stained for alkaline phosphatase (ALP) activity (cat# 86R-1KT, Sigma). Post-screen assays were done in 96-well plates and siRNA was transfected at the concentration of 30 nM at the cell density of 8000 cells/well. CRE decoy oligonucleotide and control oligonucleotide (phosphorothioate bond modification on all nucleotides) (Park, Y. G. et al., J Biol Chem 274:1573-1580 (1999)) were transfected into cells similarly as siRNA using Xtreme-siRNA transfection reagent, except that the final DNA concentration was 90 nM. Control siRNA (siCon) used in the screen contains a pool of 50 scrambled sequences that have at least 4 mismatches to known human transcripts and ESTs, and at least 2-3 mismatches to the whole human genome. siCon used in target characterization after primary screen was purchased from Dharmacon (D-001210-01-05), which was bioinformatically designed to have >=4 mismatches with known human and mouse genes. siTOX was also purchased from Dharmacon (D-001500-01-05).
To find out whether CREB (cAMP Responding Element Binding protein), a common downstream effector of cAMP signaling pathway, is involved in mediating cAMP signaling controlled differentiation of hMSCs, we checked the expression level of the active form of CREB proteins in cells 3 days after siP2RY11, siADK, siGNAS, siSLC12a2 or siCon transfection. […]

[1] = tested on: human mesenchymal stem cells (hMSCs); assay: Compound treatment: OS-induced osteogenic differentiation of hMSCs (ALP / alizarin red staining); type: cell-based; details: compound combined with OS treatment; ALP and/or alizarin red staining
Description: 8-CPT-cAMP, Na (cat# 116812), 5-Iodotubercidin (cat# 407900), Prostaglandin E2 (PGE2, cat# 538904), SB 202190 (cat# 559388) and U0126 (cat# 662005) were purchased from Calbiochem; N6,2′-O-Dibutyryl-cAMP (cat# D0260-5MG), forskolin (cat# F6886), ascorbic acid 2-phosphate (cat# 49752-10G), β-glycerophosphate (G-6251), dexamethasone (D8893), 3-isobutyl-1-methylxanthine (IBMX, I5879) and Insulin (I 9278) were purchased from Sigma/Aldrich/Fluka.
Since the targeted genes are all positively involved in intracellular cAMP signaling, we tested the effect of two compounds of opposing function on cAMP production on osteogenic differentiation of hMSCs, ADK inhibitor 5-iodotubercidin and ADCY activator forskolin (Cottam, H. B. et al., J Med Chem 36:3424-3430 (1993); de Souza, N. J. et al., Med Res Rev 3:201-219 (1983)). […] ATP has been shown as a ligand for P2RY11 receptor (Communi et al., 1997). […] The present observations are consistent with the conclusion that […] in hMSCs, and vice versa.

[2] = tested on: human mesenchymal stem cells (hMSCs); assay: Oil Red O staining, adipogenic differentiation with adipogenic inducing media; type: cell-based
Description: Cells were rinsed with PBS twice, fixed in 10% formalin solution for 20 minutes, rinsed with PBS twice and dH2O once, washed with propylene glycol for 5 minutes, and stained with Oil red in propylene glycol (I2722A, Newcomer Supply) for 30 minutes. Cells were then washed with 85% propylene glycol for 5 minutes, rinsed with dH2O 3 times and preserved in 50% glycerol.
Bone cell maturation is accompanied by extracellular matrix (ECM) mineralization (John Bilezikian et al., Principles of bone biology, Vol 1, 2nd edn: Academic Press) (2002)). To examine whether the osteogenic differentiation of hMSCs induced by the hit siRNAs can further proceed to the maturation stage, hit siRNA treated cells were cultured for 20 days. […] These observations are consistent with the conclusion that the targeted genes of the ten effective hit siRNAs not only play inhibitory roles in osteogenic specification of hMSCs, but also in bone cell maturation. […] Furthermore, in osteoporotic patients, the number of adipocytes was increased in the marrow, implying a change of cell fate disposition from osteoblast lineage to adipocyte lineage (Justesen, J. et al., Biogerontology 2:165-171 (2001); Meunier, P. et al., Clin Orthop Relat Res 80:147-154 (1971)). […]

[3] = tested on: human mesenchymal stem cells (hMSCs); assay: Alizarin red staining for calcium phosphate deposits (ECM mineralization, bone cell maturation); type: cell-based; details: OS started three days after siRNA transfection and continued for 9 days
Description: Cells were rinsed with PBS twice, stained in alizarin red solution (cat# vw3611-2, VWR) for 8 minutes at room temperature, washed with PBS again, fixed in 10% formalin solution (cat# HT-5014, Sigma) for 20 minutes, then rinsed with water and air dried.
Bone cell maturation is accompanied by extracellular matrix (ECM) mineralization (John Bilezikian et al., Principles of bone biology, Vol 1, 2nd edn: Academic Press) (2002)). […] […] These observations are consistent with the conclusion that the targeted genes of the ten effective hit siRNAs not only play inhibitory roles in osteogenic specification of hMSCs, but also in bone cell maturation. […] Furthermore, in osteoporotic patients, the number of adipocytes was increased in the marrow, implying a change of cell fate disposition from osteoblast lineage to adipocyte lineage (Justesen, J. et al., Biogerontology 2:165-171 (2001); Meunier, P. et al., Clin Orthop Relat Res 80:147-154 (1971)). We therefore examined the effect of our hit siRNAs on adipogenic differentiation of hMSCs by combined treatment with an adipogenic inducing cocktail (100 μg/ml IBMX, 1 μM DEX and 10 μg/ml insulin).

BMP-2, PLZF, TAZ = assay: RT-PCR of positive regulators of osteogenesis; type: cell-based, human; details: samples collected on day 7 or day 12 after siRNA transfection
Description: Total RNA from each sample was prepared from around 5×10(4) cells using RNAeasy mini kit from Qiagen and further treated with Turbo DNA-Free (cat# 1907, Ambion) to prevent DNA contamination. Reverse transcription was carried out using SuperScript First-Strand Synthesis System for RT-PCR (cat# 11904-018, Invitrogen) or Qiagen OneStep RT-PCR kit (cat# 210210) as instructed. PCR primers used were as follows: […]
To test their roles in our siRNA induced osteogenic differentiation, RT-PCR was performed on these genes. […] In addition, MAPK signaling pathways have been shown activated in the OS treated hMSCs, and inhibition of these pathways suppresses OS induced osteogenesis (FIG. 9b) (Jaiswal, R. K. et al., J Biol Chem 275:9645-9652 (2000)).

[4] = tested on: human mesenchymal stem cells (hMSCs); assay: Alkaline phosphatase (ALP) activity staining of siRNA-transfected hMSCs (osteogenic differentiation screen); type: cell-based; details: for ALP activity induced by the hit siRNAs or OS, on co-transfection: co-transfected with each hit siRNA, compared to siCon co-transfection
Description: as §1
Fifty five hits that gave rise to a significant increase of ALP activity on day 7 after siRNA transfection in hMSCs were identified and confirmed (FIG. 2a & Table 1).

ERK1/2 and p38 = assay: Western blot of phosphorylated ERK1/2 and p38; type: cell-based, human; details: 72 hours after transfection
Description: Cell lyses buffer contains 20 mM Tris pH8.0, 1 mM EDTA, 150 mM NaCl and 0.5% NP-40, and before usage, protease inhibitor cocktail (Cat# p8340, Sigma, 1:100 dilution) and phosphatase inhibitor cocktail 2 (Cat# p5726, sigma, 1:100 dilution) were added. Proteins (60 μg/well) were separated in 12% Novex Tris-Glycine gel (Cat# EC6008 box, Invitrogen) and transferred to Nitrocellulose membrane (Cat# LC2001, Invitrogen) using the XCell II blot module system (Cat# EI9051, Invitrogen). The membrane was blocked in 5% milk/PBST for 1 hour at room temperature, incubated over night at 4 degree with primary antibody, washed 3 times with PBST (0.05% Tween 20 in PBS), followed by one hour incubation with secondary antibody in 5% milk/PBST and 3 times wash with PBST at room temperature. For antibody against pCREB however, PBST was substituted with PBS in all steps except for the last one. Antibody-bound proteins were detected utilizing ECL Western blotting detection reagent (Amersham Biosciences).
Anti-phospho-CREB was purchased from Upstate Biotechnology (cat# 06-519); Anti-phospho-p38 was purchased from Cell signaling technology (cat# 9910).
We therefore examined the activation status of ERK1/2 and p38 in the siDUSP6 treated hMSCs along with other siRNA treated samples by western blot using antibodies against the phosphorylated form of the protein at 72 hours after transfection (FIG. 9c).

5′-TGACGTCATGACGTCATGACGTCA-3′ (DNA dT*dG*dA*dC*dG*dT*dC*dA*dT*dG*dA*dC*dG*dT*dC*dA*dT*dG*dA*dC*dG*dT*dC*dA) [CRE decoy, synthetic 24-mer CRE decoy palindrome oligonucleotide, phosphorothioate bond modification on all nucleotides]
adipogenic differentiation after decoy transfection (CREB): inhibited cells from undergoing adipogenic differentiation | adipogenic differentiation after decoy transfection (CREB; listed as CRE (CREB responding element) decoy): less responsive | osteogenic differentiation after decoy transfection (CREB; osteogenic induction media (OS), listed as CRE (CREB responding element) decoy): less responsive

Nc1ncnc2c1c(I)cn2[C@@H]1O[C@H](CO)[C@@H](O)[C@H]1O [5-iodotubercidin]
osteogenic effect of the OS media on hMSCs [1]: significantly enhanced; also recorded: enhanced the osteogenic effect of the OS media | adipogenic differentiation of hMSCs (oil red o staining), compound ([2]; adipogenic inducing media plus compound): inhibited the adipogenic differentiation of hMSCs in a dose dependent manner

CAGAUGCAUCGACCAAAAC (siRNA; listed as RNA, chemistry not fully specified) [siMJD, siRNA targeting Machado-Joseph disease (ataxin 3)]
intensity of alizarin red staining (bone cell maturation), 3+9OS [3]: no significant effect | expression of PLZF (RT-PCR) (BMP-2, PLZF, TAZ): detected; also recorded: induced

CGGUCACGGAUGACGACUA (listed as RNA, chemistry not given here) [siCOMP, siRNA targeting cartilage oligomeric matrix protein]
osteogenic differentiation (alkaline phosphatase activity) ([4]; 9 days after siRNA transfection): induces osteogenic differentiation | adipogenesis induced by adipogenic inducing media (Oil Red O) ([2]; Adipo on the third day after siRNA transfection, continued for 12 days): enhances adipogenesis

CUGUGGUGUCUUGGUACAU (listed as RNA, chemistry not given here) [siDUSP6, siRNA targeting dual specificity phosphatase 6]
phosphorylated (active) p38 level (Western blot) (ERK1/2 and p38): increased level; also recorded: up regulated | intensity of alizarin red staining (bone cell maturation), 3+9OS [3]: modest enhancement

UAGUAGAGAUAUGGAGUGCtg (antisense); GCACUCCAUAUCUCUACUAtt (sense) (chain 1 UAGUAGAGAUAUGGAGUGCTG; chain 2 GCACUCCAUAUCUCUACUATT; chemistry not given here) [CBFA1 siRNA, CBFA 1-specific siRNA]
ALP activity induced by the hit siRNAs or OS, on co-transfection [4]: reduced the level of ALP activity | ALP activity induced by the hit siRNAs or OS, on co-transfection ([4]; listed as siCbfa 1): reduced
